Measurements reported in patent publication US20120122727A1, “IN VITRO METHOD FOR PREDICTING WHETHER A COMPOUND IS GENOTOXIC IN VIVO” (priority 2009, published 2012).
Read-outs that look alike come from different tables or passages of the source.

Tested on: primary mouse hepatocytes
Assay: Gene expression in primary mouse hepatocytes, GTX vs non-GTX (four-gene classifier, 24 h)
Procedure: Hepatocyte cells were incubated and exposed to a compound for 24 h before being harvested for RNA isolation.
The results of the gene expression analysis may then be fed into a statistical software package such as R, Splus, or Microsoft Excel. […] If none or only one of these criteria were met, no point was scored.
For each of the four genes mentioned in the table (1700007K13RIK, GAS2L3, SPC25, DDIT4L), a statistical comparison was made between the normalized expression data for these genes. […] If none or only one of these criteria were met, no point was scored.
For each compound, the sum of the scores for four genes is taken. If this score is 0, a compound can be believed not to be genotoxic. If this score is 1, 2, 3 or 4, a compound is genotoxic.
If none or only one of these criteria were met, no point was scored.

[1] = 24 h exposure, average of four replicates
[2] = log 2 ratio, 24 h exposure, concentration per Table 4
[3] = sum of scores for four genes, 0 = not genotoxic, 1, 2, 3 or 4 = genotoxic

Compound | score 1700007K13RIK [1] | score DDIT4L [1] | score GAS2L3 [1] | score SPC25 [1] | Ratios of gene expression treated/untreated 1700007K13RIK [2] | Ratios of gene expression treated/untreated DDIT4L [2] | Ratios of gene expression treated/untreated GAS2L3 [2] | Ratios of gene expression treated/untreated SPC25 [2] | Total score [3] | Ratios of gene expression treated/untreated 1700007K13RIK | Ratios of gene expression treated/untreated DDIT4L | Ratios of gene expression treated/untreated GAS2L3 | Ratios of gene expression treated/untreated SPC25 | Total score | score 1700007K13RIK | score DDIT4L | score GAS2L3 | score SPC25
CCCCCCCCCCCCCC(=O)O[C@@H]1[C@@H](C)[C@@]2(O)[C@@H](C=C(CO)C[C@]3(O)C(=O)C(C)=C[C@@H]23)[C@@H]2C(C)(C)[C@]12OC(C)=O [TPA, Tetradecanoylphorbol Acetate] | 0 | 0 | 0 | 0 | −0.0617 | 0.05594 | 0.01747 | 0.03809 | 0 | – | – | – | – | – | – | – | – | –
Clc1cc2c(cc1Cl)Oc1cc(Cl)c(Cl)cc1O2 [TCDD, 2,3,7,8-Tetrachlorodibenzodioxin] | 0 | 0 | 0 | 0 | 0.0752 | 0.2646 | 0.22 | 0.01802 | 0 | – | – | – | – | – | – | – | – | –
OC[C@@H](O)[C@@H](O)[C@H](O)[C@H](O)CO [dMan, D-Mannitol] | 0 | 0 | 0 | 0 | 0.02382 | 0.03421 | −0.2175 | −0.0363 | 0 | – | – | – | – | – | – | – | – | –
COc1ccc(C)cc1N [pCres, Para-Cresidine] | – | – | – | – | – | – | – | – | – | 0.2086 | 1.066 | 1.562 | 1.331 | 3 | 0 | 1 | 1 | 1
Cc1cccc(Nc2cc(Cl)nc(SCC(=O)O)n2)c1C [Wyeth, Wy-14,643] | 0 | 0 | 0 | 0 | −0.3527 | −0.1013 | −0.7113 | −0.0756 | 0 | – | – | – | – | – | – | – | – | –
O=C(O)Cc1ccccc1Nc1c(Cl)cccc1Cl [DF, Diclofenac] | 0 | 0 | 0 | 0 | – | – | – | – | 0 | 0.09622 | 0.1268 | −0.2839 | 0.4079 | – | – | – | – | –
CC(C)(c1ccc(O)cc1)c1ccc(O)cc1 [BPA, Bisphenol A] | 0 | 0 | 0 | 0 | −0.0382 | 0.0293 | −0.06 | −0.0457 | 0 | – | – | – | – | – | – | – | – | –
ClC(Cl)(Cl)Cl [CCI4, Carbon tetrachloride] | 0 | 0 | 0 | 0 | 0.3906 | 0.4894 | −0.3188 | 0.3544 | 0 | – | – | – | – | – | – | – | – | –
CCC[CH2][Sn]([CH2]CCC)([CH2]CCC)[O][Sn]([CH2]CCC)([CH2]CCC)[CH2]CCC [TBTO, Bis(tri-n-butyltin)oxide] | 0 | 0 | 0 | 0 | 0.09131 | 0.319 | −0.0161 | 0.2186 | 0 | – | – | – | – | – | – | – | – | –
